In ChEMBL document CHEMBL1201862, “PubChem BioAssay data set” (2004):
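Following 48 hours of exposure in 96-well plates, responses at five concentrations were used to interpolate endpoints linearly. GI50: concentration for 50% inhibition of growth.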 The source made the active and inactive calls. No stated cut-off is given here; in the data, active = GI50 up to about 1.1 µM and inactive = higher. Where a SMILES comes first, the peptide text is derived from it. The star is where a group is joined. Boc = CC(C)(C)OC(=O)*; tBu = CC(C)(C)*

Experiments:
Test in all cases: NCI tumour cell line growth inhibition, 48 h
HT-29 = system: HT-29
U-251 = system: U-251
NCI-H23 = system: NCI-H23
MDA-N = system: MDA-N
NCI-H522 = system: NCI-H522
RXF 393 = system: RXF 393
SNB-19 = system: SNB-19
M14 = system: M14
MOLT-4 = system: MOLT-4
NCI-H226 = system: NCI-H226
MCF7 = system: MCF7
EKVX = system: EKVX
786-0 = system: 786-0
OVCAR-4 = system: OVCAR-4
HL-60 = system: HL-60
OVCAR-5 = system: OVCAR-5
SF-295 = system: SF-295
UO-31 = system: UO-31
MDA-MB-435 = system: MDA-MB-435
HCC 2998 = system: HCC 2998

Structure (SMILES) | GI50 (HT-29) | GI50 (U-251) | GI50 (NCI-H23) | GI50 (MDA-N) | GI50 (NCI-H522) | GI50 (RXF 393) | GI50 (SNB-19) | GI50 (M14) | GI50 (MOLT-4) | GI50 (NCI-H226) | GI50 (MCF7) | GI50 (EKVX) | GI50 (786-0) | GI50 (OVCAR-4) | GI50 (HL-60) | GI50 (OVCAR-5) | GI50 (SF-295) | GI50 (UO-31) | GI50 (MDA-MB-435) | GI50 (HCC 2998)
CC(=O)OCOC(=O)CN(CC(=O)OCOC(C)=O)Cc1cc2c(cc1OC(C)=O)Oc1cc(OC(C)=O)c(CN(CC(=O)OCOC(C)=O)CC(=O)OCOC(C)=O)cc1C21OC(=O)c2ccccc21 | 0.483 µM (active) | 1.87 µM (inactive) | 0.481 µM (active) | 0.309 µM (active) | 0.237 µM (active) | 0.34 µM (active) | 1.27 µM (inactive) | 1.16 µM (inactive) | 0.241 µM (active) | 1.34 µM (inactive) | 0.342 µM (active) | 2.52 µM (inactive) | 0.346 µM (active) | 0.998 µM (active) | 0.01 µM (active) | 2.94 µM (inactive) | 1.59 µM (inactive) | 1.82 µM (inactive) | 0.782 µM (active) | –
CCOC(=O)[C@H]1O[C@@H]1C(=O)NC(CC(C)C)C(=O)NCCC(C)C (stereo partly specified) | > 100 µM (inactive) | > 100 µM (inactive) | > 100 µM (inactive) | > 100 µM (inactive) | > 100 µM (inactive) | – | > 100 µM (inactive) | > 100 µM (inactive) | > 100 µM (inactive) | > 100 µM (inactive) | > 100 µM (inactive) | > 100 µM (inactive) | > 100 µM (inactive) | > 100 µM (inactive) | – | > 100 µM (inactive) | > 100 µM (inactive) | > 100 µM (inactive) | > 100 µM (inactive) | > 100 µM (inactive)
COc1ccccc1Nc1nc2c([nH]1)c(=O)n(C)c(=O)n2C | > 10 µM (inactive) | – | > 10 µM (inactive) | > 10 µM (inactive) | – | > 10 µM (inactive) | – | > 10 µM (inactive) | > 10 µM (inactive) | – | > 10 µM (inactive) | > 10 µM (inactive) | > 10 µM (inactive) | > 10 µM (inactive) | > 10 µM (inactive) | – | > 10 µM (inactive) | – | > 10 µM (inactive) | > 10 µM (inactive)
C=CCCC(On1c(-c2ccc(Cl)cc2)csc1=S)c1ccccc1 (stereo unspecified) | 7.59 µM (inactive) | 21.2 µM (inactive) | 39.4 µM (inactive) | 3.36 µM (inactive) | 12.4 µM (inactive) | 29.7 µM (inactive) | 35.6 µM (inactive) | 13.9 µM (inactive) | 7.62 µM (inactive) | 26.7 µM (inactive) | 16.7 µM (inactive) | 19.9 µM (inactive) | 32.6 µM (inactive) | 38.5 µM (inactive) | 7.18 µM (inactive) | > 100 µM (inactive) | 13.9 µM (inactive) | 42 µM (inactive) | 4.56 µM (inactive) | –
N#C/C(=C1\N=C(c2ccccc2O)Oc2ccccc21)c1ccc([N+](=O)[O-])cc1 | > 100 µM (inactive) | 71.9 µM (inactive) | > 100 µM (inactive) | > 100 µM (inactive) | – | > 100 µM (inactive) | > 100 µM (inactive) | > 100 µM (inactive) | > 100 µM (inactive) | > 100 µM (inactive) | > 100 µM (inactive) | > 100 µM (inactive) | 93.8 µM (inactive) | 41.9 µM (inactive) | > 100 µM (inactive) | > 100 µM (inactive) | 72.3 µM (inactive) | > 100 µM (inactive) | > 100 µM (inactive) | > 100 µM (inactive)
CNC(=O)OCC1=C(COC(=O)NC)CN(c2ccc(OC)cc2)C1 | > 100 µM (inactive) | > 100 µM (inactive) | > 100 µM (inactive) | > 100 µM (inactive) | – | > 100 µM (inactive) | > 100 µM (inactive) | > 100 µM (inactive) | > 100 µM (inactive) | 4.2 µM (inactive) | > 100 µM (inactive) | > 100 µM (inactive) | > 100 µM (inactive) | > 100 µM (inactive) | > 100 µM (inactive) | > 100 µM (inactive) | > 100 µM (inactive) | 80.9 µM (inactive) | > 100 µM (inactive) | > 100 µM (inactive)
CC1(C)N=C(c2ccccc2)SC12S[C@@H]1CCCC[C@H]1S2 | 94.6 µM (inactive) | > 100 µM (inactive) | 14.7 µM (inactive) | 20.7 µM (inactive) | > 100 µM (inactive) | > 100 µM (inactive) | 13.2 µM (inactive) | > 100 µM (inactive) | 63.8 µM (inactive) | > 100 µM (inactive) | 64.4 µM (inactive) | > 100 µM (inactive) | – | > 100 µM (inactive) | > 100 µM (inactive) | > 100 µM (inactive) | > 100 µM (inactive) | > 100 µM (inactive) | > 100 µM (inactive) | –
CN(C)CCNc1nc2c(c(=O)n(C)c(=O)n2C)n1C | > 100 µM (inactive) | > 100 µM (inactive) | > 100 µM (inactive) | > 100 µM (inactive) | > 100 µM (inactive) | > 100 µM (inactive) | > 100 µM (inactive) | > 100 µM (inactive) | > 100 µM (inactive) | > 100 µM (inactive) | > 100 µM (inactive) | > 100 µM (inactive) | > 100 µM (inactive) | > 100 µM (inactive) | > 100 µM (inactive) | > 100 µM (inactive) | > 100 µM (inactive) | > 100 µM (inactive) | > 100 µM (inactive) | –
NC(=S)Nc1c(S(N)(=O)=O)cc(S(N)(=O)=O)c(Cl)c1Cl | > 100 µM (inactive) | > 100 µM (inactive) | > 100 µM (inactive) | > 100 µM (inactive) | > 100 µM (inactive) | > 100 µM (inactive) | > 100 µM (inactive) | > 100 µM (inactive) | > 100 µM (inactive) | > 100 µM (inactive) | > 100 µM (inactive) | > 100 µM (inactive) | > 100 µM (inactive) | > 100 µM (inactive) | > 100 µM (inactive) | > 100 µM (inactive) | > 100 µM (inactive) | > 100 µM (inactive) | > 100 µM (inactive) | –
O=C(O)C1C2C=CC(O2)C1C(=O)NCc1cccnc1 (stereo unspecified) | > 100 µM (inactive) | > 100 µM (inactive) | > 100 µM (inactive) | > 100 µM (inactive) | > 100 µM (inactive) | > 100 µM (inactive) | > 100 µM (inactive) | > 100 µM (inactive) | > 100 µM (inactive) | > 100 µM (inactive) | > 100 µM (inactive) | > 100 µM (inactive) | > 100 µM (inactive) | > 100 µM (inactive) | > 100 µM (inactive) | > 100 µM (inactive) | > 100 µM (inactive) | > 100 µM (inactive) | > 100 µM (inactive) | –
COc1cc(CCN)c(OC)c(OC)c1 | > 100 µM (inactive) | > 100 µM (inactive) | > 100 µM (inactive) | 39.2 µM (inactive) | > 100 µM (inactive) | > 100 µM (inactive) | > 100 µM (inactive) | 58.7 µM (inactive) | > 100 µM (inactive) | – | 42.3 µM (inactive) | > 100 µM (inactive) | > 100 µM (inactive) | > 100 µM (inactive) | 40.4 µM (inactive) | > 100 µM (inactive) | > 100 µM (inactive) | > 100 µM (inactive) | 24.8 µM (inactive) | –
CCOC(=O)c1nc2ccc(C(F)(F)F)cc2[nH]c1=O | > 100 µM (inactive) | > 100 µM (inactive) | > 100 µM (inactive) | > 100 µM (inactive) | – | > 100 µM (inactive) | > 100 µM (inactive) | > 100 µM (inactive) | > 100 µM (inactive) | > 100 µM (inactive) | > 100 µM (inactive) | – | > 100 µM (inactive) | > 100 µM (inactive) | > 100 µM (inactive) | > 100 µM (inactive) | > 100 µM (inactive) | > 100 µM (inactive) | > 100 µM (inactive) | > 100 µM (inactive)
CC(=O)Oc1ccc2cc(-c3ccccc3OC(C)=O)c(=O)oc2c1 | > 100 µM (inactive) | 34 µM (inactive) | 31.6 µM (inactive) | 49.5 µM (inactive) | 4.3 µM (inactive) | – | 46.9 µM (inactive) | 51.4 µM (inactive) | 6.92 µM (inactive) | 27.7 µM (inactive) | 89.3 µM (inactive) | 25.2 µM (inactive) | 25.6 µM (inactive) | 18.3 µM (inactive) | 3.24 µM (inactive) | 69 µM (inactive) | 50.4 µM (inactive) | 4.97 µM (inactive) | 10.9 µM (inactive) | 48.1 µM (inactive)
CN(C)CCn1c(=O)c2ccc(NCCN3CCNCC3)c3c(=O)c4ccccc4n(c1=O)c23 | 0.82 µM (active) | 1.11 µM (active) | 2.3 µM (inactive) | 3.68 µM (inactive) | 1.07 µM (active) | – | 2.94 µM (inactive) | 4.84 µM (inactive) | 0.0294 µM (active) | 2.38 µM (inactive) | 0.743 µM (active) | 1.87 µM (inactive) | 0.358 µM (active) | 5.69 µM (inactive) | 2.59 µM (inactive) | 8.47 µM (inactive) | 1.02 µM (active) | 4.94 µM (inactive) | 2.86 µM (inactive) | 1.97 µM (inactive)
CC(OC(C)(C)C)C(NC(=O)C(N)CCCCNC(=O)OC(C)(C)C)C(=O)NC(Cc1ccccc1)C(=O)O (stereo unspecified) (H-Lys(Boc)-Thr(tBu)-Phe-OH; configuration not given here) | > 100 µM (inactive) | > 100 µM (inactive) | > 100 µM (inactive) | > 100 µM (inactive) | – | > 100 µM (inactive) | > 100 µM (inactive) | > 100 µM (inactive) | > 100 µM (inactive) | > 100 µM (inactive) | > 100 µM (inactive) | > 100 µM (inactive) | > 100 µM (inactive) | > 100 µM (inactive) | > 100 µM (inactive) | > 100 µM (inactive) | > 100 µM (inactive) | > 100 µM (inactive) | > 100 µM (inactive) | > 100 µM (inactive)
